According to patent US20080167330A1, “Carbamoylsulphoximides as protein kinase inhibitors” (priority 2006, published 2008):
pIC50: −log10 of the molar value.

Key:
Format in all cases: biochemical
human Aurora-C = target: T1, human Aurora-C (Homo sapiens, UniProt Q9UQB9); experiment: Aurora-C kinase assay (HTRF); conditions: 10 μM ATP
T1 construct: GST; made in house; host or cells: transiently transfected HEK293 cells
T1 sequence (Q9UQB9 1-309): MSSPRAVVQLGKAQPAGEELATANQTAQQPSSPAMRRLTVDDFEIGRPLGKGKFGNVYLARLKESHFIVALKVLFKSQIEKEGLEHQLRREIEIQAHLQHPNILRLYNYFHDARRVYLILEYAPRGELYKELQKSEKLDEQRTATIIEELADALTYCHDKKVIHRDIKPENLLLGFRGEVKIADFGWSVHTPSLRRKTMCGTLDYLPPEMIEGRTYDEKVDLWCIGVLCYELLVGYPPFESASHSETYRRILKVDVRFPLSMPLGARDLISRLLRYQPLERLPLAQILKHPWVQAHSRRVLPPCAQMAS
Protocol: The Aurora-C inhibitory activity of the substances of this invention was measured in the Aurora-C-HTRF assay (HTRF=Homogeneous Time Resolved Fluorescence) described in the following paragraphs.
Recombinant fusion protein of GST and human Aurora-C was expressed in transiently transfected HEK293 cells and purified by affinity chromatography on glutathione-Sepharose. The substrate used for the kinase reaction was the biotinylated peptide biotin-Ttds-FMRLRRLSTKYRT (C terminus in amide form) which can be purchased for example from JERINI Peptide Technologies (Berlin). Aurora-C was incubated in the presence of various concentrations of test substances in 5 μL of assay buffer [25 mM Hepes/NaOH pH 7.4, 0.5 mM MnCl2, 2.0 mM dithiothreitol, 0.1 mM sodium orthovanadate, 10 μM adenosine triphosphate (ATP), […] substrate, 0.01% (v/v) TritonX-100 (Sigma), 0.05% (w/v) bovine serum albumin (BSA), 1% (v/v) dimethyl sulphoxide] at 22° C. for 60 min. The concentration of Aurora-C was adapted to the particular activity of the enzyme and adjusted so that the assay operated in the linear range. Typical concentrations were in the region of 0.3 nM. The reaction was stopped by adding 5 μl of a solution of HTRF detection reagents (0.2 μM streptavidin-XLent and 1.4 nM anti-phospho-(Ser/Thr)-Akt substrate-Eu-cryptate (Cis biointernational, France, product No. 61P02KAE), a Europium-cryptate-labelled phospho-(Ser/Thr)-Akt substrate antibody [product #9611B, Cell Signaling Technology, Danvers, Mass., USA]) in aqueous EDTA solution (40 mM EDTA, 400 mM KF, 0.05% (w/v) bovine serum albumin (BSA) in 25 mM HEPES/NaOH pH 7.0).
The resulting mixture was incubated at 22° C. for 1 h in order to allow formation of a complex of the biotinylated phosphorylated substrate and the detection reagents. The amount of phosphorylated substrate was then estimated by measuring the resonance energy transfer from the anti-phospho-(Ser/Thr)-Akt substrate-Eu cryptate to the streptavidin-XLent. For this purpose, the fluorescence emissions at 620 nm and 665 nm after excitation at 350 nm were measured in an HTRF measuring instrument, e.g. a Rubystar (BMG Labtechnologies, Offenburg, Germany) or a Viewlux (Perkin-Elmer). The ratio of the emissions at 665 nm and at 622 nm was taken as a measure of the amount of phosphorylated substrate. The data were normalized (enzymic reaction without inhibitor=0% inhibition, all other assay components but no enzyme=100% inhibition) and IC50 values were calculated with a 4-parameter fit using an inhouse software.

CDK1/CycB = target: T2, CDK1/CycB (Homo sapiens, UniProt P06493); experiment: CDK1/CycB kinase assay; conditions: 0.5 μM ATP
T2 construct: GST; purchased ProQinase GmbH, Freiburg; host or cells: baculovirus-infected insect cells (Sf9)
Protocol: Recombinant CDK1- and CycB-GST fusion proteins, purified from baculovirus-infected insect cells (Sf9), were purchased from ProQinase GmbH, Freiburg. The histone IIIS used as kinase substrate can be purchased from Sigma.
CDK1/CycB (5 ng/μL) was incubated in the presence of various concentrations of test substances (0 μM, and within the range 0.01-100 μM) in 40 μL of assay buffer [50 mM Tris/HCl pH 8.0, 10 mM MgCl2, 0.1 mM Na ortho-vanadate, 1.0 mM dithiothreitol, 0.025% PEG 20000, 0.5 μM ATP, 10 μM histone IIIS, 0.2 μCi/measurement point ^33P-gamma ATP, 0.05% NP40, 1.25% dimethyl sulphoxide] at 22° C. for 10 min. The reaction was stopped by adding EDTA solution (250 mM, pH 8.0, 15 μl/measurement point). 15 μl of each reaction mixture were loaded onto P30 filter strips (from Wallac), and non-incorporated ^33P-ATP was removed by washing the filter strips three times in 0.5% strength phosphoric acid for 10 min each time. After the filter strips had been dried at 70° C. for 1 hour, the filter strips were covered with scintillator strips (MeltiLex™ A, from Wallac) and baked at 90° C. for 1 hour. The amount of incorporated ^33P (substrate phosphorylation) was determined by scintillation measurement in a gamma radiation counter (Wallac).
(§1) The measured data were normalized to 0% inhibition (enzyme reaction without inhibitor) and 100% inhibition (all assay components except enzyme). The IC50 values were determined by means of a 4-parameter fit using the company's own software.

CDK2/CycE = target: T3, CDK2/CycE (Homo sapiens, UniProt P24941); experiment: CDK2/CycE kinase assay; conditions: 0.5 μM ATP
T3 construct: GST; purchased ProQinase GmbH, Freiburg; host or cells: baculovirus-infected insect cells (Sf9)
Protocol: Recombinant CDK2- and CycE-GST fusion proteins, purified from baculovirus-infected insect cells (Sf9), were purchased from ProQinase GmbH, Freiburg. The histone IIIS used as kinase substrate was purchased from Sigma. CDK2/CycE (1.25 ng/μL) was incubated in the presence of various concentrations of test substances (0 μM, and within the range 0.01-100 μM) in 40 μL of assay buffer [50 mM Tris/HCl pH 8.0, 10 mM MgCl2, 0.1 mM Na ortho-vanadate, 1.0 mM dithiothreitol, 0.5 μM ATP, 0.2% PEG20000, 10 μM histone IIIS, 0.2 μCi/measurement point ^33P-gamma ATP, 0.05% NP40, 1.25% dimethyl sulphoxide] at 22° C. for 10 min. The reaction was stopped by adding EDTA solution (250 mM, pH 8.0, 15 μl/measurement point).
15 μl of each reaction mixture were loaded onto P30 filter strips (from Wallac), and non-incorporated ^33P-ATP was removed by washing the filter strips three times in 0.5% strength phosphoric acid for 10 min each time.
(§2) After the filter strips had been dried at 70° C. for 1 hour, the filter strips were covered with scintillator strips (MeltiLex™ A, from Wallac) and baked at 90° C. for 1 hour. The amount of incorporated ^33P (substrate phosphorylation) was determined by scintillation measurement in a gamma radiation counter (Wallac).
as §1

KDR (VEGFR2) = target: T4, KDR (VEGFR2) (Homo sapiens, UniProt P35968); experiment: KDR kinase assay; conditions: 8 μM ATP
T4 construct: GST; purchased ProQinase GmbH, Freiburg; host or cells: baculovirus-infected insect cells (Sf9)
Protocol: Recombinant KDR kinase-GST fusion proteins purified from baculovirus-infected insect cells (Sf9), were purchased from ProQinase GmbH, Freiburg. Poly(Glu4Tyr)n, which was used as kinase substrate, was purchased from Sigma.
KDR kinase was incubated in the presence of various concentrations of test substances (0 μM, and within the range 0.01-100 μM) in 40 μL of assay buffer [40 mM Tris/HCl pH 7.5, 10 mM MgCl2, 1 mM MnCl2, 1.0 mM dithiothreitol, 8 μM ATP, 0.025% PEG20000, 24 ng/μL poly(Glu4Tyr)n, 0.2 μCi/measurement point ^33P-gamma ATP, 1.25% dimethyl sulphoxide] at 22° C. for 10 min. The reaction was stopped by adding EDTA solution (250 mM, pH 7.5, 15 μl/measurement point). 15 μl of each reaction mixture were loaded onto P30 filter strips (from Wallac), and non-incorporated ^33P-ATP was removed by washing the filter strips three times in 0.5% strength phosphoric acid for 10 min each time.
as §2, §1

[1] = system: Aurora C, CDK1/CycB, CDK2/CycE, KDR (VEGFR2); experiment: various kinase assays taken together (selectivity profile); conditions: comparison across the kinase assays, in words
Protocol: The compounds of Examples 1 to 22 were tested for their inhibitory effect in the various kinase assays and in a proliferation assay with MCF7 human breast tumour cells (Tab. 1). […] Exemplary compounds 1-8, 10-12, 15, 17-20 inhibit the proliferation of human MCF7 breast tumour cells with half-maximum concentrations in the submicromolar range.

T2 sequence (P06493 whole entry): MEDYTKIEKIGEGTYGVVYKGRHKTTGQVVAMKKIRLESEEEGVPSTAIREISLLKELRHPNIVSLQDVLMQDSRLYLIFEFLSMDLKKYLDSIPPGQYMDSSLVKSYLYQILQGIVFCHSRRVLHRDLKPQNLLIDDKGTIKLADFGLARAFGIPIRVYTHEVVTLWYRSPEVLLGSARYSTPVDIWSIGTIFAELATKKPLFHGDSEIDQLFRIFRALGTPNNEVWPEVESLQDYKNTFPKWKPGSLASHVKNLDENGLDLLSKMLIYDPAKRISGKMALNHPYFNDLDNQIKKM
T2 sequence (P14635 whole entry partner): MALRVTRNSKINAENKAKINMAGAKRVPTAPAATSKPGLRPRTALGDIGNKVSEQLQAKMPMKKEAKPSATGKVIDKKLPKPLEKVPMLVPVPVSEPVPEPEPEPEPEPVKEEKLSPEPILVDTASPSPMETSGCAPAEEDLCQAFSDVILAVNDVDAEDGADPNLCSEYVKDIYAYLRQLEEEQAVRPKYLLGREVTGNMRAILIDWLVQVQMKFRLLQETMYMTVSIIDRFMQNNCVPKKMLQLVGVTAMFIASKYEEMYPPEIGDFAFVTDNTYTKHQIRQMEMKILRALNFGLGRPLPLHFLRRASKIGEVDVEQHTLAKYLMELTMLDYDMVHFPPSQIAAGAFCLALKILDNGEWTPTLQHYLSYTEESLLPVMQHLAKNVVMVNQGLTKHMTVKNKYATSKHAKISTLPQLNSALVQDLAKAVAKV
T4 sequence (P35968 807-1356 limits assumed): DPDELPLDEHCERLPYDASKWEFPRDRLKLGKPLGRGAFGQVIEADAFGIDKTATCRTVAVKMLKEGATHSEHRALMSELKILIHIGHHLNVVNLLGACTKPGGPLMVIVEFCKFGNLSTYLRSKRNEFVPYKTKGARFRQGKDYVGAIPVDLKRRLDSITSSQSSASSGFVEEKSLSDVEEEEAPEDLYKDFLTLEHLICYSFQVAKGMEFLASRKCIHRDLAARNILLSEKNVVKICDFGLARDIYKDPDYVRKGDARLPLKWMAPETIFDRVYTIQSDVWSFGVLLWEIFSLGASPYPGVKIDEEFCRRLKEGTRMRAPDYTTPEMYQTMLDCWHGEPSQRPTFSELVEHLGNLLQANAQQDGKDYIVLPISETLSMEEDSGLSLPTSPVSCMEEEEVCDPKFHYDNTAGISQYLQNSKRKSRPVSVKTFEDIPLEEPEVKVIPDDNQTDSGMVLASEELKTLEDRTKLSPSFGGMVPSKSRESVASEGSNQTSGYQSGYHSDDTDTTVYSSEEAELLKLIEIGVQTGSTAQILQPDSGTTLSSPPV

pIC50 (human Aurora-C): 4.70 | pIC50 (CDK1/CycB): 6.74 | pIC50 (CDK2/CycE): 7.37 | pIC50 (KDR (VEGFR2)): < 6.00 | selectivity profile [1]: CDK-selective
SMILES: Cc1c(NC(=O)N=S(C)(C)=O)cccc1Nc1ncc(Br)c(N[C@H](C)[C@@H](C)O)n1 [Example 9, N-({3-[(5-Bromo-4-{[(1R,2R)-2-hydroxy-1-methylpropyl]amino}pyrimidin-2-yl)amino]-2-methylphenyl)carbamoyl)-S,S-dimethylsulphoximide]
